Experimental data as given in patent US20260265265A1, “NOVEL BENZIMIDAZOLONE DERIVATIVE COMPOUND AS AUTOTAXIN INHIBITOR” (LG CHEM, LTD., priority 2023, published 2026).

Biological target: T1, Recombinant Human ENPP-2/Autotaxin (Homo sapiens, UniProt Q13822)
T1 construct: purchased R&D systems 5255-EN
Assay: LysoPLD activity measurement (autotaxin enzyme inhibition, choline release, TOOS reagent)
Type: biochemical
Settings: LysoPLD inhibitory activity; substrate 14:0 LysoPC; absorbance at 555 nm
Method in brief: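 Autotaxin lysoPLD activity was read as choline released from 14:0 LysoPC, detected by TOOS reagent absorbance. Compound was preincubated 30 min, then substrate diluted to 300 μM was added and the reaction ran 90 minutes at 37° C. Controls contained 1% DMSO.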

| IC50 | SMILES |
| --- | --- |
| < 0.01 µM | O=C(O)c1cccc(C2(n3c(=O)n(-c4ccc(N5CCC(F)(F)CC5)cc4)c4cc(Cl)ccc43)CC2)c1 [Example 160, 3-(1-(5-chloro-3-(4-(4,4-difluoropiperidin-1-yl)phenyl)-2-oxo-2,3-dihydro-1H-benzo[d]imidazol-1-yl)cyclopropyl)benzoic acid] |
| 0.1 to 1 µM | CN(C)c1ccc(-n2c(=O)n(Cc3cccc(C(=O)O)c3)c3ccc(Cl)cc32)nc1 [Example 164, 3-((5-chloro-3-(5-(dimethylamino)pyridin-2-yl)-2-oxo-2,3-dihydro-1H-benzo[d]imidazol-1-yl)methyl)benzoic acid] |
| < 0.01 µM | O=C(O)c1cccc(C2(n3c(=O)n(-c4ccc(S(=O)(=O)NC5CC5)cc4)c4cc(Cl)ccc43)CC2)c1 [Example 211, 3-(1-(5-chloro-3-(4-(N-cyclopropylsulfamoyl)phenyl)-2-oxo-2,3-dihydro-1H-benzo[d]imidazol-1-yl)cyclopropyl)benzoic acid] |
| < 0.01 µM | CS(=O)(=O)c1ccc(-n2c(=O)n(C3(c4cccc(C(=O)O)c4)CC3)c3ccc(Cl)cc32)cc1 [Example 180, 3-(1-(5-chloro-3-(4-(methylsulfonyl)phenyl)-2-oxo-2,3-dihydro-1H-benzo[d]imidazol-1-yl)cyclopropyl)benzoic acid] |
| < 0.01 µM | CN1Cc2cc(-n3c(=O)n(C4(c5cccc(C(=O)O)c5)CC4)c4ccc(Cl)cc43)ccc2C1=O [Example 245, 3-(1-(5-chloro-3-(2-methyl-1-oxoisoindolin-5-yl)-2-oxo-2,3-dihydro-1H-benzo[d]imidazol-1-yl)cyclopropyl)benzoic acid] |
| < 0.01 µM | O=C(O)c1cccc(C2(n3c(=O)n(-c4ccc(-c5nnc(C6CCOCC6)o5)cc4)c4cc(Cl)ccc43)CC2)c1 [Example 267, 3-(1-(5-chloro-2-oxo-3-(4-(5-(tetrahydro-2H-pyran-4-yl)-1,3,4-oxadiazol-2-yl)phenyl)-2,3-dihydro-1H-benzo[d]imidazol-1-yl)cyclopropyl)benzoic acid] |
| < 0.01 µM | O=C(O)c1cccc(C2(n3c(=O)n(-c4ccc(C5(CO)CC5)cc4)c4cc(Cl)ccc43)CC2)c1 [Example 238, 3-(1-(5-chloro-3-(4-(1-(hydroxymethyl)cyclopropyl)phenyl)-2-oxo-2,3-dihydro-1H-benzo[d]imidazol-1-yl)cyclopropyl)benzoic acid] |
| < 0.01 µM | O=C(O)c1cccc(C2(n3c(=O)n(-c4ccc(CC5COC5)cc4)c4cc(Cl)ccc43)CC2)c1 [Example 240, 3-(1-(5-chloro-3-(4-(oxetan-3-ylmethyl)phenyl)-2-oxo-2,3-dihydro-1H-benzo[d]imidazol-1-yl)cyclopropyl)benzoic acid] |
| < 0.01 µM | O=C(O)c1cc(F)cc(C2(n3c(=O)n(-c4ccc(N5CC6CCC(C5)O6)cc4)c4cc(Cl)ccc43)CC2)c1 [Example 192, 3-(1-(3-(4-(8-oxa-3-azabicyclo[3.2.1]octan-3-yl)phenyl)-5-chloro-2-oxo-2,3-dihydro-1H-benzo[d]imidazol-1-yl)cyclopropyl)-5-fluorobenzoic acid] |
| 0.01 to 0.1 µM | CS(=O)(=O)c1ccc(-n2c(=O)n(C3(c4cccc(C(=O)O)c4)CC3)c3ncc(Cl)cc32)cc1 [Example 227, 3-(1-(6-chloro-1-(4-(methylsulfonyl)phenyl)-2-oxo-1,2-dihydro-3H-imidazo[4,5-b]pyridin-3-yl)cyclopropyl)benzoic acid] |
| < 0.01 µM | CN1CCN(Cc2ccc(-n3c(=O)n(C4(c5cccc(C(=O)O)c5)CC4)c4ccc(Cl)cc43)cc2)C1=O [Example 241, 3-(1-(5-chloro-3-(4-((3-methyl-2-oxoimidazolin-1-yl)methyl)phenyl)-2-oxo-2,3-dihydro-1H-benzo[d]imidazol-1-yl)cyclopropyl)benzoic acid] |
| < 0.01 µM | O=C(O)c1cccc(C2(n3c(=O)n(-c4ccc(-c5nnc(C6CC6)o5)cc4)c4cc(Cl)ccc43)CC2)c1 [Example 263, 3-(1-(5-chloro-3-(4-(5-cyclopropyl-1,3,4-oxadiazol-2-yl)phenyl)-2-oxo-2,3-dihydro-1H-benzo[d]imidazol-1-yl)cyclopropyl)benzoic acid] |
| < 0.01 µM | O=C(O)c1cccc(C2(n3c(=O)n(-c4ccc(S(=O)(=O)N5CCOCC5)cc4)c4cc(Cl)ccc43)CC2)c1 [Example 212, 3-(1-(5-chloro-3-(4-(morpholinosulfonyl)phenyl)-2-oxo-2,3-dihydro-1H-benzo[d]imidazol-1-yl)cyclopropyl)benzoic acid] |
| < 0.01 µM | O=C(O)c1cc(F)cc(C2(n3c(=O)n(-c4ccc(N5CCOCC5)cc4)c4cc(Cl)ccc43)CC2)c1 [Example 187, 3-(1-(5-chloro-3-(4-morpholinophenyl)-2-oxo-2,3-dihydro-1H-benzo[d]imidazol-1-yl)cyclopropyl)-5-fluorobenzoic acid] |

More lines, now with the values behind:

| SMILES | IC50 |
| --- | --- |
| O=C(O)c1cccc(Cn2c(=O)n(-c3ccc(C4=CCOCC4)cc3)c3cc(Cl)ccc32)c1 [Example 104, 3-((5-chloro-3-(4-(3,6-dihydro-2H-pyran-4-yl)phenyl)-2-oxo-2,3-dihydro-1H-benzo[d]imidazol-1-yl)methyl)benzoic acid] | 0.01 to 0.1 µM |
| O=C(O)c1cccc(Cn2c(=O)n(-c3ccc(N4CCN(C(=O)C5CCC5)CC4)cc3)c3cc(Cl)ccc32)c1F [Example 142, 3-((5-chloro-3-(4-(4-(cyclobutanecarbonyl)piperazin-1-yl)phenyl)-2-oxo-2,3-dihydro-1H-benzo[d]imidazol-1-yl)methyl)-2-fluorobenzoic acid] | 0.01 to 0.1 µM |
| O=C(O)c1cccc(C2(n3c(=O)n(-c4ccc(C5=CCOCC5)cc4)c4cc(Cl)ccc43)CC2)c1 [Example 121, 3-(1-(5-chloro-3-(4-(3,6-dihydro-2H-pyran-4-yl)phenyl)-2-oxo-2,3-dihydro-1H-benzo[d]imidazol-1-yl)cyclopropyl)benzoic acid] | < 0.01 µM |
| CN(C)c1ccc(-n2c(=O)n(C3(c4cccc(C(=O)O)c4F)CC3)c3ccc(Cl)cc32)cc1 [Example 70, 3-(1-(5-chloro-3-(4-(dimethylamino)phenyl)-2-oxo-2,3-dihydro-JH-benzo[d]imidazol-1-yl)cyclopropyl)-2-fluorobenzoic acid] | < 0.01 µM |
| O=C(O)c1cccc(Cn2c(=O)n(-c3ccccc3)c3cc(Cl)ccc32)c1F [Example 33, 3-((5-chloro-2-oxo-3-phenyl-2,3-dihydro-1H-benzo[d]imidazol-1-yl)methyl)-2-fluorobenzoic acid] | 0.1 to 1 µM |
| O=C(O)c1cccc(Cn2c(=O)n(-c3ccc(N4CCC(F)(F)C4)cc3)c3c(F)c(Cl)ccc32)c1F [Example 119, 3-((5-chloro-3-(4-(3,3-difluoropyrrolidin-1-yl)phenyl)-4-fluoro-2-oxo-2,3-dihydro-1H-benzo[d]imidazol-1-yl)methyl)-2-fluorobenzoic acid] | 0.01 to 0.1 µM |
| O=C(O)c1cccc(Cn2c(=O)n(-c3ccc(N4CCC(F)(F)CC4)nc3)c3cc(Cl)ccc32)c1 [Example 82, 3-((5-chloro-3-(6-(4,4-difluoropiperidin-1-yl)pyridin-3-yl)-2-oxo-2,3-dihydro-1H-benzo[d]imidazol-1-yl)methyl)benzoic acid] | 0.01 to 0.1 µM |
| CN(C)c1ccc(-n2c(=O)n(C3(c4cccc(C(=O)O)c4)CCC3)c3ccc(Cl)cc32)cc1 [Example 156, 3-(1-(5-chloro-3-(4-(dimethylamino)phenyl)-2-oxo-2,3-dihydro-1H-benzo[d]imidazol-1-yl)cyclobutyl)benzoic acid] | 0.01 to 0.1 µM |
| COc1ccc(-n2c(=O)n(Cc3cccc(C(=O)O)c3)c3ccc(Cl)cc32)cc1 [Example 5, 3-((5-chloro-3-(4-methoxyphenyl)-2-oxo-2,3-dihydro-1H-benzo[d]imidazol-1-yl)methyl)benzoic acid] | 0.01 to 0.1 µM |
| O=C(O)c1cccc(C2(n3c(=O)n(-c4ccc(C5CCOCC5)cc4)c4cc(Cl)ccc43)CC2)c1F [Example 106, 3-(1-(5-chloro-2-oxo-3-(4-(tetrahydro-2H-pyran-4-yl)phenyl)-2,3-dihydro-1H-benzo[d]imidazol-1-yl)cyclopropyl)-2-fluorobenzoic acid] | < 0.01 µM |
| O=C(O)c1cccc(C2(n3c(=O)n(-c4ccc(C(=O)N5CCCCC5)cc4)c4cc(Cl)ccc43)CC2)c1 [Example 64, 3-(1-(5-chloro-2-oxo-3-(4-(piperidin-1-carbonyl)phenyl)-2,3-dihydro-1H-benzo[d]imidazol-1-yl)cyclopropyl)benzoic acid] | < 0.01 µM |
| O=C(O)c1cccc(Cn2c(=O)n(-c3ccc(-c4ccc(Cl)cc4)cc3)c3cc(Cl)ccc32)c1 [Example 7, 3-((5-chloro-3-(4′-chloro-[1,1′-biphenyl]-4-yl)-2-oxo-2,3-dihydro-1H-benzo[d]imidazol-1-yl)methyl)benzoic acid] | 0.1 to 1 µM |
| O=C(O)c1cccc(Cn2c(=O)n(-c3ccc(F)cc3)c3cc(Cl)ccc32)c1 [Example 3, 3-((5-chloro-3-(4-fluorophenyl)-2-oxo-2,3-dihydro-1H-benzo[d]imidazol-1-yl)methyl)benzoic acid] | 0.1 to 1 µM |
| O=C(O)c1cccc(Cn2c(=O)n(-c3ccc(-c4ccccc4)cc3)c3cc(Cl)ccc32)c1 [Example 15, 3-((3-([1,1′-biphenyl]-4-yl)-5-chloro-2-oxo-2,3-dihydro-1H-benzo[d]imidazol-1-yl)methyl)benzoic acid] | 0.1 to 1 µM |
| O=C(O)c1cccc(C2(n3c(=O)n(-c4ccc(N5CC(O)C5)cc4)c4cc(Cl)ccc43)CC2)c1 [Example 159, 3-(1-(5-chloro-3-(4-(3-hydroxyazetidin-1-yl)phenyl)-2-oxo-2,3-dihydro-1H-benzo[d]imidazol-1-yl)cyclopropyl)benzoic acid] | < 0.01 µM |
| O=C(O)c1cccc(C2(n3c(=O)n(-c4ccc(C5CCOCC5)cc4)c4cc(Cl)ccc43)CCC2)c1 [Example 155, 3-(1-(5-chloro-2-oxo-3-(4-(tetrahydro-2H-pyran-4-yl)phenyl)-2,3-dihydro-1H-benzo[d]imidazol-1-yl)cyclobutyl)benzoic acid] | 0.01 to 0.1 µM |
| CN(C)c1ccc(-n2c(=O)n(Cc3cccc(C(=O)O)c3)c3c(F)cc(Cl)cc32)cc1 [Example 66, 3-((5-chloro-3-(4-(dimethylamino)phenyl)-7-fluoro-2-oxo-2,3-dihydro-1H-benzo[d]imidazol-1-yl)methyl)benzoic acid] | 0.01 to 0.1 µM |
